According to patent publication US20060281807A1, “Quassinoid compositions for the treatment of cancer and other proliferative diseases” (Tapestry Pharmaceuticals, Inc., priority 2005, published 2006):
Values joined by “and” are separate entries in the source; they are usually repeats but may differ in a detail not shown here. Equal values may be shown once.

Legend:
[1] = system: Colon 38 (murine colon adenocarcinoma); assay: Disk diffusion assay, zone of inhibition, Colon 38; zone differentials, potency and product; type: cell-based; parameters: key to C38ΔL1210 / C38ΔCFU: difference of zone of inhibition values, in zone units; details: for zone of inhibition, Colon 38: 1 mg/mL; for Sum: C38ΔL1210 plus C38ΔCFU; for C38ΔL1210: Colon38 vs L1210 leukemia
Summary of the method: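 Dissociated Colon 38 cells were plated in soft agar over a hard agar layer; 15 µl of compound dilution dried on a 6.5 mm disk was placed on the plate, and incubation ran 7–10 days. Inhibition zone was measured from disk edge to normal colonies, with the disk diameter = 200 units. Potency = dilution giving 500 units; the product multiplies it by the differentials against L1210 or CFU-GM.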

[2] = system: HCT116 (human colorectal carcinoma); assay: Disk diffusion assay, zone of inhibition, HCT116; type: cell-based; details: 1 mg/mL
Description: (§1) A disk diffusion assay was performed to define the differential cell killing ability of 15-O-(3′-hydroxy-3′-isopropyl-4′-methylpentanoyl)bruceolide. Seven cell types were assayed: L1210 (ATCC CCL-219) (murine leukemia), CCRF-CEM (ATCC CCL-119) (human leukemia), Colon 38 (murine colon adenocarcinoma), HCT116 (ATCC CCL-247) (human colorectal carcinoma), H125 (human lung carcinoma). The murine and human granulocyte/macrophage progenitor cell line (CFU-GM), served as controls.
(§2) Colon 38 cells (about 1 gram) were cut into small fragments in 15 mL of Hank's Balanced Salt Solution (HBSS) over a 100-mesh sieve and gently forced through by the scissors with HBSS constantly perfusing the sieve. The resulting material was then drawn into and out of a 5 mL syringe without a needle to further disperse the cell clumps. The cell solution was diluted and plated in 0.3% agarose in DMEM plus 10% heat-inactivated Bovine Calf Serum (BCS). For plating of all of the cell types (except controls), the 60 mm plates were first prepared with a hard agar bottom layer (0.6% agar in RPMI-1640 plus 15% BCS).
HCT116 and H125 cells were maintained in cell culture, and were removed from culture by a trypsin-collagenase-DNAase cocktail. The plating efficiencies of each cell type was sufficiently high that 30,000 cells in 3 mL produced the desired number of colonies (i.e., over 10,000 per plate) in 60 mm plates. This soft agar top layer (0.3% with the serum and media as above) plus the titrated tumor cells were poured into the plates and allowed to solidify.
(§3) A 15 μl sample of each compound was dropped onto a 6.5 mm disk (Baxter filter disks). The disks were allowed to dry overnight and then placed close to the edge of a petri dish. Depending upon the cell type, the dishes were incubated for 7 to 10 days, and examined by an inverted stereo-microscope (10×) for measurement of the zone of inhibition. The zone of inhibition was measured from the edge of the filter disk to the beginning of normal-sized colony formation. The diameter of the filter disk, 6.5 mm, was arbitrarily taken as a zone of 200 units. Compounds that were selective for killing solid tumors, as compared to leukemia or normal cells (“solid tumor selective”) were defined as those compounds which produced a difference in zones between solid tumor cells and either normal or leukemia cells of at least 250 units. The results of this analysis are set forth in Table 4, which illustrates the relative diameters of the zones of inhibition by various drugs on the growth of the respective cell types at various drug dilutions.

[3] = system: CCRF-CEM (human leukemia); assay: Disk diffusion assay, zone of inhibition, CCRF-CEM; type: cell-based; details: 1 mg/mL
Description: as §1, §2, §3

[4] = Pharmacokinetics, plasma and tumor concentration by HPLC in HCT-116 tumor-bearing SCID mice; type: in vivo; details: for concentration in plasma / concentration in tumor: 2.25 mg/mouse intravenously
Description: Samples from HCT-116 tumor-bearing SCID mice were analyzed via high performance liquid chromatography (HPLC) following administration of inventive compositions. […] At different time points following administration of the inventive compounds (up to 24 hours), individual mice were killed and both blood and tumor samples were removed for HPLC analysis.
In particular, a Waters 2690 Separation Module (Waters Corp., Milford, Mass.) connected to a Waters 2487 Dual wavelength absorbance detector controlled by Millennium32 v3.20 was used for separation, detection, data acquisition, integration and quantitation. An external standard calibration method was used to quantify the inventive compounds in each sample. A Symmetry Shield RP18 5 μm ([…]) analytical column (Waters Corp., Milford, Mass.) was used in the separation of each inventive compound. The column temperature was maintained at 30° C. 25 μl of each sample was injected per analytical run.
The mobile phase consisted of 99% water/1% acetonitrile as the initial gradient composition for the inventive composition. A gradient analysis from deionized water to acetonitrile at a flow rate of 1 mL/min for each tested compound is set forth in Tables 9 and 10. The detection wavelength for the inventive composition was 278 nm, and the retention time was 7.8 minutes.
For the in vivo pharmacokinetic trial, 15 mice were inoculated bilaterally and subcutaneously in the inguinal area with 10^7 tumor cells (by a 16-gauge needle), such as HCT-116 cells or trocar-implanted Colon 38 cells. Each of the compounds 15-O-(3′-hydroxy-3′-isopropyl-4′-methylpentanoyl)bruceolide and 15-(3-isopropyl-4-methyl-2-pentenoyl)-bruceolide was administered intravenously at the MTD in 0.25 mL via the tail vein. Each compound was administered to 10 animals when the tumors reached a measurable size (i.e., 80 to 300 mm^3) at a dose determined from the MTD study. The remaining five animals served as time-point controls. At prescribed times thereafter, one animal per time point was sacrificed, and blood and bilateral tumors were harvested for analysis of drug concentrations. Specifically, mice were sacrificed for pharmacological analysis at 1, 5, 15, 30, 60, 120, 240, 360 minutes and 12 and 24 hours following administration of the inventive compounds.

L1210 (murine leukemia) = assay: Disk diffusion assay, zone of inhibition, L1210; type: cell-based; details: 1 mg/mL
Description: as §1, §2, §3

[5] = no dilution, 15 μl on disk, 6.5 mm = 200 units
[6] = difference between zone of inhibition values

SMILES	zone of inhibition, Colon 38 ([1]; dilution 1/10) [units]	zone of inhibition, Colon 38 ([1]; dilution 1/100)	zone of inhibition, Colon 38 ([1]; dilution 1/1000)	zone of inhibition, Colon 38 [1, 5] [units]	Sum [1]	C38ΔL1210 [1, 6]	zone of inhibition, H-116 ([2]; dilution 1/10)	zone of inhibition, H-116 ([2]; dilution 1/1000) [units]	zone of inhibition, H-116 [2, 5] [units]	zone of inhibition, CEM ([3]; dilution 1/10)	zone of inhibition, CEM ([3]; dilution 1/100)	zone of inhibition, L1210 (L1210 (murine leukemia); dilution 1/10) [units]	zone of inhibition, L1210 (L1210 (murine leukemia); dilution 1/100)	zone of inhibition, L1210 (L1210 (murine leukemia); [5]) [units]	further results
COC(=O)[C@@]12OC[C@@]34C1[C@@H](OC(=O)C=C(C(C)C)C(C)C)C(=O)O[C@@H]3C[C@H]1C(C)=C(O)C(=O)C[C@]1(C)[C@H]4[C@@H](O)[C@@H]2O (stereo partly shown) [15-O-(3′-isopropyl-4′-methyl-2′-pentenoyl)-bruceolide]	>1000	850 units and 650 units	450 units	>1000	750	300	750 units	0	>1000	800 units	400 units	1000	650 units and 600 units	>1000	C38ΔCFU ([1]; difference between zone of inhibition values, Colon38 vs normal cell CFU-GM): 450; Product ([1]; potency multiplied by zone differentials): 4500; zone of inhibition, H-116 ([2]; dilution 1/100): 100 units; concentration at 0.5 h ([4]; SCID, in vivo, 0.5 hour time point, intravenous (FIG. 8: 0.075 mg/mouse)): 100 ng/mL; concentration at 1 h ([4]; SCID, in vivo, 1 hour time point, intravenous (FIG. 8: 0.075 mg/mouse), below sensitivity of the assay): < 50 ng/mL; level in the tumor, FIG. 8 ([4]; all time points, 0.075 mg/mouse intravenously, detection limit 0.05 μg/mL): below the detection limit; concentration in tumor samples ([4]; entire 24 hour sampling period, intravenous (FIG. 8: 0.075 mg/mouse)): below the sensitivity level of the assay; concentration in vivo (plasma), FIG. 8 ([4]; time points 1 to 24 hours, 0.075 mg/mouse intravenously, below detection limit): < 50 ng/mL; zone of inhibition, L1210 (L1210 (murine leukemia); dilution 1/1000): 150 units
COC(=O)[C@@]12OC[C@@]34C1[C@@H](OC(=O)CC(O)(C(C)C)C(C)C)C(=O)O[C@@H]3C[C@H]1C(C)=C(O)C(=O)C[C@]1(C)[C@H]4[C@@H](O)[C@@H]2O (stereo partly shown) [15-O-(3′-hydroxy-3′-isopropyl-4′-methylpentanoyl)bruceolide]	>1000	750 units and 600 units and 500 units	400 units and 250 units	>1000	750 and 1450	400 and 550	1000 units and 900 units	0	>1000	650 units and 700 units	100 units and 150 units	550	200 units	1000	zone of inhibition, Colon 38 ([1]; dilution 1/400): 300 units; survival of mouse designated for analysis ([4]; 24 hours post administration, 2.25 mg/mouse intravenously (above the MTD)): did not survive; concentration in plasma ([4]; one hour post administration): approximately 7 μg/mL; concentration in tumor ([4]; one hour post administration): approximately 7 μg/mL; concentration in plasma ([4]; six hours post administration): 100 ng/mL; concentration in tumor ([4]; six hours post administration): 800 ng/mL; concentration in plasma ([4]; two hours post administration): 1500 ng/mL; concentration in tumor ([4]; two hours post administration): approximately 4 μg/mL; zone of inhibition, L1210 (L1210 (murine leukemia); dilution 1/400): 0 units
